Experimental data: ChEMBL document CHEMBL4823254, “Tetrahydroquinoline-Capped Histone Deacetylase 6 Inhibitor SW-101 Ameliorates Pathological Phenotypes in a Charcot-Marie-Tooth Type 2A Mouse Model” (J Med Chem, 2021)
pIC50: −log10 of the molar value. The source made the active and inactive calls.

Columns and labels:
[1] = system: Mus musculus; assay: Neuroprotective activity in hMFN2-induced CMT2A transgenic mouse model assessed as increase in paw withdrawal threshold at 20 mg/kg, ip qd administered when treated prior with compound dissolved in PBS/PEG400/Tween80/EtOH (50/35/10/5) wt% as vehicle by von Frey test; type: functional, organism-based
[2] = system: Mus musculus; assay: Neuroprotective activity in hMFN2-induced CMT2A transgenic mouse model assessed as increase in paw withdrawal threshold at 20 mg/kg, ip qd by von Frey test; type: functional, organism-based
[3] = Total AUC (0 to infinity) in C57BL/6J mouse brain at 15 mg/kg, ip; type: ADME, organism-based; design: time AUCmax, route intraperitoneal, dose 15 mg/kg
[4] = Toxicity in mouse assessed as adverse effect at 10 to 20 mg/kg, ip administered for 3 days every 12 hrs; type: organism-based; conditions: in vivo, 72 h, dose 10-20 mg/kg, time 3 day
[5] = Half life in human pooled liver microsomes assessed as parent compound remaining measured up to 60 mins in presence of NADPH by LC-MS/MS analysis; type: ADME, Microsome; conditions: pooled liver microsomes
[6] = biological target: T1, Protein deacetylase HDAC6 (Mus musculus) (UniProt Q9Z2V5); assay: In vivo inhibition of HDAC6 in hMFN2-induced CMT2A transgenic mouse model assessed as increase in acetylated tubulin in distal sciatic nerve tissue at 20 mg/kg, ip qd administered for 12 weeks followed by treatment with compound dissolved in PBS/PEG400/Tween80/EtOH (50/35/10/5) wt% as vehicle by Western blot analysis; type: functional, organism-based
T1 sequence (whole entry): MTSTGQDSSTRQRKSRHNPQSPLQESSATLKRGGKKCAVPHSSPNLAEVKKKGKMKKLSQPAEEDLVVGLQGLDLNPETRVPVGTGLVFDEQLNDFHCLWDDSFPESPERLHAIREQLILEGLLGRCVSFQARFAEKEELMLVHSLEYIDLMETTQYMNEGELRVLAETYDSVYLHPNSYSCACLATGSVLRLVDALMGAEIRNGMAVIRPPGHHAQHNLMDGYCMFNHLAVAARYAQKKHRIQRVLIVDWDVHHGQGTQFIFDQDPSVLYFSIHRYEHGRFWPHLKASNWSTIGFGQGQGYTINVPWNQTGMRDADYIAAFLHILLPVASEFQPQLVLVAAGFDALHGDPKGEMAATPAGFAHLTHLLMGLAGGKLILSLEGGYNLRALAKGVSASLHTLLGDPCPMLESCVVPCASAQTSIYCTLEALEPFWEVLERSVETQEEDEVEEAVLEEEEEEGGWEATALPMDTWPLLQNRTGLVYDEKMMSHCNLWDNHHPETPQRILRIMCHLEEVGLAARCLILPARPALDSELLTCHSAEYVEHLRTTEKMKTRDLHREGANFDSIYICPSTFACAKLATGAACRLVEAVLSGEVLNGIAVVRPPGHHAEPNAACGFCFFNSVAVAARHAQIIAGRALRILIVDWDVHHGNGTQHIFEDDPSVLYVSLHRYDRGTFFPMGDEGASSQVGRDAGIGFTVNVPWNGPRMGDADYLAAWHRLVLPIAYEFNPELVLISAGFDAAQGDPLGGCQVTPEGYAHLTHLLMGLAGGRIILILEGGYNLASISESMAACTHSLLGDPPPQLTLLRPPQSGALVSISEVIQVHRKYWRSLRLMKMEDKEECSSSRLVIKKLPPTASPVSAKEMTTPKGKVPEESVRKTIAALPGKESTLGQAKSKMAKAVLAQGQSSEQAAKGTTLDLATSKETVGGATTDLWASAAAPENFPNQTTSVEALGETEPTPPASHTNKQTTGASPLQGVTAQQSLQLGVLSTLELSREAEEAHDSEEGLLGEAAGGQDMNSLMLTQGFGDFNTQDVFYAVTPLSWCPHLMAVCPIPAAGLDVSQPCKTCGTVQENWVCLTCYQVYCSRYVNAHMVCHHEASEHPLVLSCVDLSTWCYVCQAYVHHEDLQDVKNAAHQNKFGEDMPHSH

[7] = system: Mus musculus; assay: Neuroprotective activity in hMFN2-induced CMT2A transgenic mouse model assessed as increase in paw withdrawal latency at 20 mg/kg, ip qd administered when treated prior with compound dissolved in PBS/PEG400/Tween80/EtOH (50/35/10/5) wt% as vehicle by von Frey test; type: functional, organism-based
[8] = biological target: Histone deacetylase 5 (Homo sapiens, UniProt Q9UQL6); assay: Inhibition of recombinant human HDAC5 using Boc-Lys(TFA)-AMC as substrate preincubated for 10 mins followed by substrate addition and measured after 30 mins by fluorescence-based assay
Chain of Histone deacetylase 5 (Q9UQL6 whole entry): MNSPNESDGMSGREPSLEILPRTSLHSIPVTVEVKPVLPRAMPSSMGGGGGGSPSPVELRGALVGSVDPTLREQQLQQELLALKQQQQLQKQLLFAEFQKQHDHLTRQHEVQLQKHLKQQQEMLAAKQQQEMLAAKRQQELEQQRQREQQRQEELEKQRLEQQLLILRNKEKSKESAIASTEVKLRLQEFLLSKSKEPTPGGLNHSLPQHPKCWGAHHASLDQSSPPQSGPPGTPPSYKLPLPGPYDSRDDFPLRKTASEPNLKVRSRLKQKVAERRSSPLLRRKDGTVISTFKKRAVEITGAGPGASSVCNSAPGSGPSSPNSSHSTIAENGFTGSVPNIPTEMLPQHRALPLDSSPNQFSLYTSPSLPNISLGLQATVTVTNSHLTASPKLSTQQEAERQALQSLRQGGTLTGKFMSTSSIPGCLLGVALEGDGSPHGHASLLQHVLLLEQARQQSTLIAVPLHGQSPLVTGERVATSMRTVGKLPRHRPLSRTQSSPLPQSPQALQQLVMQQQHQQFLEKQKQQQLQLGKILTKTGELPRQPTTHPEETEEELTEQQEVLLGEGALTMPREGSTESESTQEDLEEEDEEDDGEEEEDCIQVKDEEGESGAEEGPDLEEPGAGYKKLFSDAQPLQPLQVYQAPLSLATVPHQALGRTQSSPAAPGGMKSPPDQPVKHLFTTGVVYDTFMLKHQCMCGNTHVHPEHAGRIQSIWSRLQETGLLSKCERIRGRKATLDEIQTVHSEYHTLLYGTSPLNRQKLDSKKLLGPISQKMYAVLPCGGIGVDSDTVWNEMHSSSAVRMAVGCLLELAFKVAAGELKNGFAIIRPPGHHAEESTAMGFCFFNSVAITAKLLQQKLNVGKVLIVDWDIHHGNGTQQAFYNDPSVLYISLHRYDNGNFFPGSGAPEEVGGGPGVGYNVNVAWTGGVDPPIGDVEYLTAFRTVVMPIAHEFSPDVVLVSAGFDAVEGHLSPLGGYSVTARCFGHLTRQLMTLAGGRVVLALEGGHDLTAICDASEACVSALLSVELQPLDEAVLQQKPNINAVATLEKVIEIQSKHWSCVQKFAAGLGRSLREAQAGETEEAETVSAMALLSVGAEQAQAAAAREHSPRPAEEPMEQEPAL

[9] = Half life in human liver s9 fraction; type: ADME, subcellular
[10] = Protein binding in mouse plasma; type: ADME, cell-free; conditions: read-out: PPB (converted)
[11] = Half life in mouse plasma; type: ADME, cell-free
[12] = biological target: hERG (KCNH2) (Homo sapiens, UniProt Q12809); assay: Inhibition of human ERG expressed in CHO cells at 10 uM by automated patch clamp method relative to control; type: cell-based; conditions: CHO cells expressing human ERG
Chain of hERG (KCNH2) (Q12809 whole entry): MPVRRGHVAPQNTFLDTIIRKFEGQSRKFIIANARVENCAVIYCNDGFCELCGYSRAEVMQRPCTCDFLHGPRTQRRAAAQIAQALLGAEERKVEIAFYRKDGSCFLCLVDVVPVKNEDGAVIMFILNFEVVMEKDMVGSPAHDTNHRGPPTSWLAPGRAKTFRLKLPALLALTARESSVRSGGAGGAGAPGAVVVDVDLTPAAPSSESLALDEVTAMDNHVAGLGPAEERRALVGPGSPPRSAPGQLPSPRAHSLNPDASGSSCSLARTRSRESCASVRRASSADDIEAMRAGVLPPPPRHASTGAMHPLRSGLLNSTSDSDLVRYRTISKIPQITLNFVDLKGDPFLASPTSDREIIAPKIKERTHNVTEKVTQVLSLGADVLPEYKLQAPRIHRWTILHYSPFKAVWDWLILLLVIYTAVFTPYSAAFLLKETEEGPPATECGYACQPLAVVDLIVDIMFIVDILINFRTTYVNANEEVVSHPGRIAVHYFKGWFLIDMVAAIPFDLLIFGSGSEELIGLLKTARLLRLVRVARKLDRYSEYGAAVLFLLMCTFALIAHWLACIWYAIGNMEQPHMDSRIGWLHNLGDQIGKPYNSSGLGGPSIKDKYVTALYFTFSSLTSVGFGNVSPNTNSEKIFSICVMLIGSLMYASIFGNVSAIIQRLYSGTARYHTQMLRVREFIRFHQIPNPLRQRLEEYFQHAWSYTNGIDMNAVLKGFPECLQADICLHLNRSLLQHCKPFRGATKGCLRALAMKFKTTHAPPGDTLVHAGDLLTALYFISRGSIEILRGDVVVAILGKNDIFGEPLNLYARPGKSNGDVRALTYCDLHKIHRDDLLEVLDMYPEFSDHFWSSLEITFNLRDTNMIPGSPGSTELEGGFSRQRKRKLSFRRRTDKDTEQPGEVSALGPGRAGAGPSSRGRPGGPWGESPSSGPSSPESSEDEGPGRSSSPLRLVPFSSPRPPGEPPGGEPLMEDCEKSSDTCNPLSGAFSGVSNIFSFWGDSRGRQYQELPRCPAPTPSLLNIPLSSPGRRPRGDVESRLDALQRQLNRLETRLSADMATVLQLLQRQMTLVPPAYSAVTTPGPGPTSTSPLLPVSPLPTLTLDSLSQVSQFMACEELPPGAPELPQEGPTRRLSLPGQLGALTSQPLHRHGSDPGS

[13] = Stability in human pooled liver microsomes assessed as parent compound remaining measured at 60 mins in presence of NADPH by LC-MS/MS analysis; type: ADME, Microsome; conditions: pooled liver microsomes, read-out: Stabilty
[14] = biological target: Histone deacetylase 1 (Homo sapiens, UniProt Q13547)
Chain of Histone deacetylase 1 (Q13547 whole entry): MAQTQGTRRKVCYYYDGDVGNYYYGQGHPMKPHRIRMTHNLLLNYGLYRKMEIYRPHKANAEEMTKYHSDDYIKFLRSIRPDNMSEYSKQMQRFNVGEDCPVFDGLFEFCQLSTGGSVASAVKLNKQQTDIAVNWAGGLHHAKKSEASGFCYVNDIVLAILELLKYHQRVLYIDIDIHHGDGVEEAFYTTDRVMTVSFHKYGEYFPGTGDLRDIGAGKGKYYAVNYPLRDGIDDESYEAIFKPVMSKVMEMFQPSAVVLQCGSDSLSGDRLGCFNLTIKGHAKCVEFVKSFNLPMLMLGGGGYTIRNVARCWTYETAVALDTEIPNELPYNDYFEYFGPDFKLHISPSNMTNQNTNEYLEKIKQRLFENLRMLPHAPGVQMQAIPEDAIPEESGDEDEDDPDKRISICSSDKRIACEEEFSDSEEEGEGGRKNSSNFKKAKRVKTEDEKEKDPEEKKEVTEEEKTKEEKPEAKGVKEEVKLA
Description: Inhibition of recombinant human HDAC1 using Ac-GAK(Ac)-AMC as substrate preincubated for 10 mins followed by substrate addition and measured after 30 mins by fluorescence-based assay

[15] = Genotoxicity in Salmonella typhimurium TA100 at 5 to 100 uM in presence of liver S9 fraction by Ames test; type: toxicity; conditions: salmonella enterica subsp. enterica serovar typhimurium, s9, 100 µM; dose 5-100 µM
[16] = Unbound AUC (0 to infinity) in C57BL/6J mouse plasma at 15 mg/kg, ip; type: ADME, organism-based; conditions: in vivo
[17] = Genotoxicity in Salmonella typhimurium TA1535 at 5 to 100 uM in presence of liver S9 fraction by Ames test; type: toxicity; conditions: salmonella enterica subsp. enterica serovar typhimurium, s9, 100 µM; dose 5-100 µM

AUC(0-inf) [3]: 280 ng·h/mL
half-life [5]: 174 min
inhibition [6]: Active
pIC50 [8]: 6.56
half-life [9]: > 1000 min
fraction unbound [10]: 0.241
half-life [11]: 127 min
remaining at 1 h [13]: 76.3%
pIC50 [14]: 6.45
fAUC [16]: 421 ng·h/mL
Compound: NC(=O)c1ccc2c(c1)CCCN2Cc1ccc(C(=O)NO)cc1
Activity [1]: Active
Activity [2]: Active
Activity [4]: Non-Toxic
Activity [7]: Active
inhibition at 10 µM [12]: 30%
Activity [15]: Non-Toxic
Activity [17]: Non-Toxic
